Test results reported in patent US20220395472A1 (Dermavant Sciences GmbH, priority 2021, published 2022).

Tested on: adults with plaque psoriasis
Assay: Long-term open-label extension study (PSOARING 3): Physician Global Assessment (PGA), treatment episodes, treatment success, remittive effect
Format: in vivo, human
Conditions: for Average Duration of Episodes, Mean (SD) / Average Duration of Episodes, Median / Average Duration of Treatment Success, Median / Duration of 1st Episode, Mean (SD) / Duration of 1st Episode, Median / Duration of 1st Success, Mean (SD) / Duration of 1st Success, Median / Duration of 2nd Episode, Mean (SD) / Duration of 2nd Episode, Median / Duration of 2nd Success, Mean (SD) / Duration of 2nd Success, Median / Duration of 3rd Episode, Mean (SD) / Duration of 3rd Episode, Median / Duration of 3rd Success, Mean (SD) / Duration of 3rd Success, Median / Duration of 4th Episode, Mean (SD) / Duration of 4th Episode, Median / Duration of Last Episode, Mean (SD) / Duration of Last Episode, Median / Duration of Last Success, Mean (SD) / Duration of Last Success, Median / Total Duration of Treatment Episodes, Mean (SD) / Total Duration of Treatment Episodes, Median / Total Duration of Treatment Success, Mean (SD) / Total Duration of Treatment Success, Median / Average Duration of Treatment Success (treatment free interval), Mean (SD) / Average Duration of Treatment Success, Mean (SD): ITT; for Average Duration of Treatment Success (treatment free interval), Mean (SD): Overall (n=299)
Experimental: This extension study consisted of up to 40 weeks of treatment and a 4 week, safety follow up period.
At the completion of the Week 12 visit of the DB, pivotal Phase 3 study, eligibility of the subjects opting to enroll in this extension study was confirmed. Study visits during the treatment period for all subjects occurred every 4 weeks (±3 days). A phone call was performed at Week 2 (Day 15). Unscheduled visits may have occurred, as needed. Subjects who withdrew from this study before Week 40 returned to the study center for an Early Termination visit. The total duration of this extension study participation was 44 weeks. Subjects in this study were treated as follows based on their PGA score from the Week 12 visit in the DB, pivotal Phase 3 study (Study DMVT 505 3001 or Study DMVT 505 3002).
The PGA was used to assess the primary efficacy endpoint in this study. The PGA is a clinical tool for assessing the current state/severity of a subject's psoriasis at a given time point. It is a static, 5 point, morphological assessment of overall disease severity, as determined by the Investigator, using the clinical characteristics of erythema, scaling, and plaque thickness/elevation as guidelines; higher PGA scores represent more severe disease (0=clear, 1=almost clear, 2=mild, 3=moderate, and 4=severe). The BSA affected was not considered in scoring of the PGA. Variations of the PGA are frequently used in clinical studies because it is a simple assessment, similar to those used in clinical practice. The PGA was performed first, prior to the % BSA, PASI, and LTS assessments.
Time to event parameters, such as the time from treatment success to subsequent worsening (PGA≥2) or duration of treatment episode, were summarized by the Kaplan Meier product limit method using OC.

CC(C)c1c(O)cc(/C=C/c2ccccc2)cc1O [Tapinarof, 3,5-Dihydroxy-4-isopropyl-trans-stilbene]
PGA 3 - Moderate (Baseline, Overall): 249 (32.8) n (%) | PGA 4 - Severe (Baseline, Overall): 23 (3.0) n (%) | PGA 0 - Clear (Baseline, Tapinarof (Pivotal)): 73 (14.5) n (%) | PGA 1 - Almost Clear (Baseline, Tapinarof (Pivotal)): 144 (28.5) n (%) | PGA 2 - Mild (Baseline, Tapinarof (Pivotal)): 188 (37.2) n (%) | PGA 3 - Moderate (Baseline, Tapinarof (Pivotal)): 93 (18.4) n (%) | PGA 4 - Severe (Baseline, Tapinarof (Pivotal)): 7 (1.4) n (%) | Average Duration of Episodes, Mean (SD) (Overall): 162.7 (96.20) days | Average Duration of Episodes, Median (Overall): 168.0 days | Average Duration of Treatment Success, Median (Overall): 84.0 days | Duration of 1st Episode, Mean (SD) (Overall): 163.1 (97.10) days | Duration of 1st Episode, Median (Overall): 169.0 days | Duration of 1st Success, Mean (SD) (Overall): 100.0 (78.49) days | Duration of 1st Success, Median (Overall): 84.0 days | Duration of 2nd Episode, Mean (SD) (Overall): 74.0 (55.35) days | Duration of 2nd Episode, Median (Overall): 57.0 days | Duration of 2nd Success, Mean (SD) (Overall): 65.4 (60.68) days | Duration of 2nd Success, Median (Overall): 41.0 days | Duration of 3rd Episode, Mean (SD) (Overall): 50.4 (41.38) days | Duration of 3rd Episode, Median (Overall): 32.5 days | Duration of 3rd Success, Mean (SD) (Overall): 30.0 (26.46) days | Duration of 3rd Success, Median (Overall): 28.0 days | Duration of 4th Episode, Mean (SD) (Overall): 1.0 (NE) days | Duration of 4th Episode, Median (Overall): 1.0 days | Duration of Last Episode, Mean (SD) (Overall): 162.4 (98.51) days | Duration of Last Episode, Median (Overall): 169.0 days | Duration of Last Success, Mean (SD) (Overall): 95.4 (82.18) days | Duration of Last Success, Median (Overall): 64.0 days | Total Duration of Treatment Episodes, Mean (SD) (Overall): 177.6 (90.38) days | Total Duration of Treatment Episodes, Median (Overall): 197.0 days | Total Duration of Treatment Success, Mean (SD) (Overall): 119.3 (81.80) days | Total Duration of Treatment Success, Median (Overall): 112.0 days | Average Duration of Treatment Success (treatment free interval), Mean (SD): 97.9 (76.60) days | Average Duration of Treatment Success (treatment free interval), Mean (SD) (listed as tapinarof): 97.9 days | Average Duration of Episodes, Mean (SD) (Tapinarof (Pivotal) group): 157.1 (97.16) days | Average Duration of Episodes, Median (Tapinarof (Pivotal) group): 140.5 days | Average Duration of Treatment Success, Mean (SD) (Tapinarof (Pivotal) group): 102.4 (77.90) days | Average Duration of Treatment Success, Median (Tapinarof (Pivotal) group): 84.0 days | Duration of 1st Episode, Mean (SD) (Tapinarof (Pivotal) group): 156.6 (98.77) days | Duration of 1st Episode, Median (Tapinarof (Pivotal) group): 147.5 days | Duration of 1st Success, Mean (SD) (Tapinarof (Pivotal) group): 103.0 (80.13) days | Duration of 1st Success, Median (Tapinarof (Pivotal) group): 84.0 days | Duration of 2nd Episode, Mean (SD) (Tapinarof (Pivotal) group): 80.7 (58.54) days | Duration of 2nd Episode, Median (Tapinarof (Pivotal) group): 60.5 days | Duration of 2nd Success, Mean (SD) (Tapinarof (Pivotal) group): 76.5 (63.07) days | Duration of 2nd Success, Median (Tapinarof (Pivotal) group): 56.0 days | Duration of 3rd Episode, Mean (SD) (Tapinarof (Pivotal) group): 49.6 (52.51) days | Duration of 3rd Episode, Median (Tapinarof (Pivotal) group): 28.0 days | Duration of 3rd Success, Mean (SD) (Tapinarof (Pivotal) group): 32.7 (28.40) days | Duration of 3rd Success, Median (Tapinarof (Pivotal) group): 28.5 days | Duration of Last Episode, Mean (SD) (Tapinarof (Pivotal) group): 157.6 (99.25) days | Duration of Last Episode, Median (Tapinarof (Pivotal) group): 168.0 days | Duration of Last Success, Mean (SD) (Tapinarof (Pivotal) group): 101.5 (83.51) days | Duration of Last Success, Median (Tapinarof (Pivotal) group): 82.5 days | Total Duration of Treatment Episodes, Mean (SD) (Tapinarof (Pivotal) group): 173.2 (92.39) days | Total Duration of Treatment Episodes, Median (Tapinarof (Pivotal) group): 196.0 days | Total Duration of Treatment Success, Mean (SD) (Tapinarof (Pivotal) group): 125.4 (83.22) days | Total Duration of Treatment Success, Median (Tapinarof (Pivotal) group): 116.5 days | Average Duration of Episodes, Mean (SD) (Vehicle (Pivotal) group): 173.4 (93.60) days | Average Duration of Episodes, Median (Vehicle (Pivotal) group): 195.0 days | Average Duration of Treatment Success, Mean (SD) (Vehicle (Pivotal) group): 86.8 (72.58) days | Average Duration of Treatment Success, Median (Vehicle (Pivotal) group): 64.0 days | Duration of 1st Episode, Mean (SD) (Vehicle (Pivotal) group): 175.5 (92.74) days | Duration of 1st Episode, Median (Vehicle (Pivotal) group): 196.0 days | Duration of 1st Success, Mean (SD) (Vehicle (Pivotal) group): 92.8 (74.32) days | Duration of 1st Success, Median (Vehicle (Pivotal) group): 85.0 days | Duration of 2nd Episode, Mean (SD) (Vehicle (Pivotal) group): 57.8 (43.31) days | Duration of 2nd Episode, Median (Vehicle (Pivotal) group): 38.0 days | Duration of 2nd Success, Mean (SD) (Vehicle (Pivotal) group): 39.1 (45.75) days | Duration of 2nd Success, Median (Vehicle (Pivotal) group): 28.0 days | Duration of 3rd Episode, Mean (SD) (Vehicle (Pivotal) group): 51.6 (24.51) days | Duration of 3rd Episode, Median (Vehicle (Pivotal) group): 56.0 days | Duration of 3rd Success, Mean (SD) (Vehicle (Pivotal) group): 19.3 (15.89) days | Duration of 3rd Success, Median (Vehicle (Pivotal) group): 28.0 days | Duration of 4th Episode, Mean (SD) (Vehicle (Pivotal) group): 1.0 (NE) days | Duration of 4th Episode, Median (Vehicle (Pivotal) group): 1.0 days | Duration of Last Episode, Mean (SD) (Vehicle (Pivotal) group): 171.4 (96.61) days | Duration of Last Episode, Median (Vehicle (Pivotal) group): 195.0 days | Duration of Last Success, Mean (SD) (Vehicle (Pivotal) group): 80.5 (77.32) days | Duration of Last Success, Median (Vehicle (Pivotal) group): 56.0 days | Total Duration of Treatment Episodes, Mean (SD) (Vehicle (Pivotal) group): 185.9 (85.95) days | Total Duration of Treatment Episodes, Median (Vehicle (Pivotal) group): 197.0 days | Total Duration of Treatment Success, Mean (SD) (Vehicle (Pivotal) group): 104.3 (76.62) days
